Experimental findings from ChEMBL document CHEMBL3044784, “Molecular Basis of Resistance to s-Triazine Herbicides in Poa annua L. and Its Photosynthetic Properties under Different Light Conditions” (J Pestic Sci, 2001) are described below.

Assay [1] concerns Poa annua. The assay can be described thus: Pre-emergence herbicidal activity against s-triazine-resistant Poa annua at 0.25 kg/ha after 14 days by pot test. Type of assay: functional, organism-based.
The subject of assay [2] is Poa annua. The assay can be described thus: Herbicidal activity against hydroponic culture of s-triazine-resistant Poa annua at 1 ppm after 14 days. Type of assay: functional, organism-based.
Assay [3] relates to Poa annua. Nature of the assay: Pre-emergence herbicidal activity against s-triazine-resistant Poa annua at 0.10 kg/ha after 14 days by pot test. Type of assay: functional, organism-based.
Assay [4] deals with Poa annua. Nature of the assay: Pre-emergence herbicidal activity against s-triazine-resistant Poa annua at 0.5 kg/ha after 14 days by pot test. The assay is classed as functional, organism-based.
Assay [5] concerns Poa annua. Nature of the assay: Herbicidal activity against hydroponic culture of s-triazine-susceptible Poa annua at 1000 ppm after 14 days. Type of assay: functional, organism-based.
The subject of assay [6] is Poa annua. Nature of the assay: Herbicidal activity against hydroponic culture of s-triazine-susceptible Poa annua at 100 ppm after 14 days. The assay is classed as functional, organism-based.
Assay [7] has as its system Poa annua. Nature of the assay: Pre-emergence herbicidal activity against s-triazine-susceptible Poa annua at 0.5 kg/ha after 14 days by pot test. Type of assay: functional, organism-based.
The test system of assay [8] is Poa annua. Nature of the assay: Pre-emergence herbicidal activity against s-triazine-resistant Poa annua at 0.05 kg/ha after 14 days by pot test. The assay is classed as functional, organism-based.
The test system of assay [9] is Poa annua. Nature of the assay: Herbicidal activity against hydroponic culture of s-triazine-resistant Poa annua at 0.1 ppm after 14 days. The assay is classed as functional, organism-based.
The test system of assay [10] is Poa annua. The assay can be described thus: Pre-emergence herbicidal activity against s-triazine-resistant Poa annua at 1 kg/ha after 14 days by pot test. The assay is classed as functional, organism-based.
Assay [11] concerns Poa annua. Nature of the assay: Pre-emergence herbicidal activity against s-triazine-susceptible Poa annua at 1 kg/ha after 14 days by pot test. The assay is classed as functional, organism-based.
Assay [12] relates to Poa annua. The assay can be described thus: Herbicidal activity against hydroponic culture of s-triazine-resistant Poa annua at 1000 ppm after 14 days. Type of assay: functional, organism-based.
Assay [13] has as its system Poa annua. Nature of the assay: Herbicidal activity against hydroponic culture of s-triazine-resistant Poa annua at 100 ppm after 14 days. The assay is classed as functional, organism-based.
Assay [14] has as its system Poa annua. The assay can be described thus: Herbicidal activity against hydroponic culture of s-triazine-resistant Poa annua at 10 ppm after 14 days. Type of assay: functional, organism-based.
For assay [15], the system named is Poa annua. The assay can be described thus: Pre-emergence herbicidal activity against s-triazine-susceptible Poa annua at 0.05 kg/ha after 14 days by pot test. The assay is classed as functional, organism-based.
The target in assay [16] is T1, Photosystem Q(B) protein (Poa annua, UniProt Q9XQA6). Nature of the assay: Inhibition of photosystem II in s-triazine-resistant Poa annua leaf thylakoid membrane assessed as reduction of photosynthetic electron transport. The following applies: read-out: I50.
For assay [17], the target named is Photosystem Q(B) protein (Poa annua) (UniProt Q9XQA6). The assay can be described thus: Resistant ratio, ratio of I50 for photosystem II in s-triazine-resistant Poa annua leaf thylakoid membrane to I50 for photosystem II in s-triazine-susceptible Poa annua leaf thylakoid membrane.
The target of assay [18] is T1, Photosystem Q(B) protein. Nature of the assay: Inhibition ofphotosystem II in s-triazine-susceptible Poa annua leaf thylakoid membrane assessed as reduction of photosynthetic electron transport. The following applies: read-out: I50.
For assay [19], the system named is Poa annua. The assay can be described thus: Herbicidal activity against hydroponic culture of s-triazine-susceptible Poa annua at 10 ppm after 14 days. The assay is classed as functional, organism-based.
In assay [20] the test system is Poa annua. Nature of the assay: Herbicidal activity against hydroponic culture of s-triazine-susceptible Poa annua at 0.1 ppm after 14 days. Type of assay: functional, organism-based.
Assay [21] concerns Poa annua. Nature of the assay: Herbicidal activity against hydroponic culture of s-triazine-susceptible Poa annua at 1 ppm after 14 days. The assay is classed as functional, organism-based.

Active and inactive are the calls of the source. The calls are words filed in the database; no cut-off is given here. A value given as a limit tells only on which side of the number the result lay.

Regarding `CCNc1nc(Cl)nc(NC(C)(C)C#N)n1`, the outcome with Poa annua [1], in the assay with Poa annua [2], with Poa annua [3], with Poa annua [4], with Poa annua [5] and in the assay with Poa annua [6] was inactive. For the same molecule, the outcome in the assay with Poa annua [8], in the assay with Poa annua [9] and in the assay on Poa annua [10] was inactive. Besides, the result in the assay on Poa annua [7] and in the assay with Poa annua [11] was Active.
For `CCNc1nc(Cl)nc(NCC)n1`, the outcome in the assay with Poa annua [12], with Poa annua [1], in the assay on Poa annua [13], in the assay on Poa annua [2], with Poa annua [3] and with Poa annua [4] was inactive. For the same molecule, the outcome in the assay with Poa annua [14], in the assay with Poa annua [7], with Poa annua [8], in the assay with Poa annua [9] and in the assay on Poa annua [10] was inactive. Also, the result in the assay with Poa annua [5] and in the assay with Poa annua [11] was Active.
On to `CCNc1nc(NCC)nc(SC)n1`, for which the result in the assay with Poa annua [1], in the assay with Poa annua [2], in the assay with Poa annua [3], with Poa annua [4], in the assay with Poa annua [15] and with Poa annua [8] was inactive. Also, the result with Poa annua [9] and in the assay with Poa annua [10] was inactive. Moreover, the result with Poa annua [5] and in the assay on Poa annua [6] was Active.
`CSc1nc(NC(C)C)nc(NC(C)C)n1`: the outcome in the assay with Poa annua [12], with Poa annua [1], with Poa annua [13], with Poa annua [2], with Poa annua [3] and in the assay on Poa annua [4] was inactive. The outcome with Poa annua [14], in the assay on Poa annua [8], with Poa annua [9] and with Poa annua [10] was inactive. Further, the result in the assay on Poa annua [5] was Active.
`CCNc1nc(Cl)nc(NC(C)C)n1` [ATRAZINE]: the result in the assay with Poa annua [1], in the assay on Poa annua [13], in the assay with Poa annua [2], in the assay with Poa annua [3], in the assay on Poa annua [4] and in the assay with Poa annua [14] was inactive. Further, the outcome in the assay on Poa annua [8], with Poa annua [9] and with Poa annua [10] was inactive. In addition, the result in the assay with Poa annua [5], with Poa annua [6], in the assay on Poa annua [7] and in the assay with Poa annua [11] was Active. The IC50 at Photosystem Q(B) protein [16] is > 100000 nM; at Photosystem Q(B) protein [18], 160 nM. Moreover, in assay [17], the Ratio was > 625.
Regarding `CN(C)C(=O)Nc1ccc(Cl)c(Cl)c1` [DCMU], the result in the assay with Poa annua [12], in the assay on Poa annua [19], in the assay with Poa annua [13], in the assay on Poa annua [5], with Poa annua [14] and in the assay on Poa annua [6] was Active. The result in the assay with Poa annua [7], in the assay with Poa annua [10] and in the assay on Poa annua [11] was Active. Further, the IC50 at Photosystem Q(B) protein [16] was found to be 400 nM; at Photosystem Q(B) protein [18] it was 130 nM. Also, the result in the assay with Poa annua [20] and in the assay with Poa annua [9] was inactive. The Ratio in assay [17] was 3.1.
`CCC(C)c1cc([N+](=O)[O-])cc([N+](=O)[O-])c1O` (centres undefined) [DINOSEB]: the outcome in the assay on Poa annua [12], in the assay with Poa annua [13], with Poa annua [5], in the assay with Poa annua [14], with Poa annua [6] and in the assay on Poa annua [10] was Active. In addition, the IC50 on Photosystem Q(B) protein [16] stood at 400 nM; at Photosystem Q(B) protein [18] it was 4000 nM. Also, the outcome in the assay with Poa annua [20], with Poa annua [9] and in the assay with Poa annua [21] was inactive. Also, the Ratio in assay [17] amounted to 0.1.
With `O=c1[nH]c2c(c(=O)n1C1CCCCC1)CCC2` [LENACIL], the outcome in the assay with Poa annua [12], in the assay on Poa annua [13], with Poa annua [2], with Poa annua [14], in the assay with Poa annua [8] and with Poa annua [9] was inactive. The outcome in the assay on Poa annua [5], in the assay with Poa annua [7] and in the assay with Poa annua [11] was Active. Moreover, the IC50 at Photosystem Q(B) protein [16] was 20000 nM; at Photosystem Q(B) protein [18], 1000 nM. Moreover, the Ratio in assay [17] turned out to be 20.
